Assays:
Assay type in all cases: in vivo, rat
rats = assay: Preliminary toxicity studies in rats
Method: (§1) Moreover, according to preliminary toxicity studies in rats, the compound 7a is tolerated up to a dose of about […] body weight without any detrimental effects. […] Thus, high doses of 7a provide a particularly efficient means for treatment of erectile dysfunction.

[1] = Preliminary toxicity studies in rats; conditions: rat, in vivo, read-out: tolerated dose without any detrimental effects
Method: as §1

male rats = assay: Penile erection study in male rats after oral administration (responding rats, ED50, erection episodes, penile erection index); conditions: for responding rats, # / responding rats, %: 10 rats tested, 2 h observation; for copulation mounting behaviour: 0.0781-0.625 mg/kg
Method: The purpose of this study was to compare the biological activity of compound 7a with that of sildenafil. In particular, the respective ED50 -value (ED=effective dose), erection episodes and penile erection indices of said compounds in the treatment of male rats were determined. The penile erection index is an established means of determining the erection promoting properties of a substance (see e.g. Ang, H. H., Sim, M. K., Pharm. Sci., 3, 117-119 (1997) and references cited therein).
In these experiments, the compounds 7a and sildenafil were administered to male rats orally. The doses used for both drugs were 0.0781, 0.1562, 0.3125 and 0.625 mg/kg body weight. Sildenafil was dissolved in distilled water, whereas 7a was dissolved in 1% HCl solution (aq). Control animals were administered with the vehicles only, i.e. distilled water or the 1% HCl solution. During the experiments, the rats were placed in glass cages for observation and had access to food and water. During 2 h after administration of the investigated compounds, the penile erection of the rats was monitored.

CCCc1nn(C)c2c(=O)[nH]c(-c3cc(S(=O)(=O)N4CCN(C)CC4)cc4c3OCC4)nc12 [Compound 7a, 5-[2,3-dihydro-5-(4-methylpiperazin-1-ylsulfonyl)-7-benzofuryl]-1-methyl-3-propyl-6,7-dihydro-1H-pyrazolo[4,3-d]pyrimidin-7-one]
toxicity and side-effects (in words) (rats): completely non-toxic and free from undesirable side-effects | NOAEL [1]: ~0.35 mg/kg | responding rats, # (male rats; dose 0.0781 mg/kg oral): 3 # | responding rats, % (male rats; dose 0.0781 mg/kg oral): 30% | responding rats, # (male rats; dose 0.1562 mg/kg oral): 4 # | responding rats, % (male rats; dose 0.1562 mg/kg oral): 40% | responding rats, # (male rats; dose 0.3125 mg/kg oral): 4 # | responding rats, % (male rats; dose 0.3125 mg/kg oral): 40% | responding rats, # (male rats; dose 0.6250 mg/kg oral): 8 # | responding rats, % (male rats; dose 0.6250 mg/kg oral): 80% | copulation mounting behaviour (male rats; male rats, oral): no copulation mounting behaviour was observed | number of erection episodes and penile erection indices (in words) (male rats; male rats, oral, 7a vs sildenafil, FIGS. 1 and 2): superior to sildenafil, especially at higher doses | ED50 of 7a compared with sildenafil (in words) (male rats; male rats, oral, 7a vs sildenafil, 95% confidence interval): lower than that of sildenafil

CCCc1nn(C)c2c(=O)[nH]c(-c3cc(S(=O)(=O)N4CCN(C)CC4)ccc3OCC)nc12 [Sildenafil, reference compound]
responding rats, # (male rats; dose 0.0781 mg/kg oral): 3 # | responding rats, % (male rats; dose 0.0781 mg/kg oral): 30% | responding rats, # (male rats; dose 0.1562 mg/kg oral): 3 # | responding rats, % (male rats; dose 0.1562 mg/kg oral): 30% | responding rats, # (male rats; dose 0.3125 mg/kg oral): 5 # | responding rats, % (male rats; dose 0.3125 mg/kg oral): 50% | responding rats, # (male rats; dose 0.6250 mg/kg oral): 7 # | responding rats, % (male rats; dose 0.6250 mg/kg oral): 70% | copulation mounting behaviour (male rats; male rats, oral): no copulation mounting behaviour was observed

From US6242444A, “Compounds and pharmaceutical compositions containing the same” (The Jordanian Pharmaceutical Manufacturing and Medical …, priority 1999, dated 2001)
